Experimental data: patent US9682995B2, “Amino-substituted isothiazoles” (BAYER PHARMA AKTIENGESELLSCHAFT, priority 2013, dated 2017)

How the values were obtained:
Experiment in all cases: Kinase Profiling (KINOMEscan)
Type in all cases: binding
[1] = target: 456 kinases (of these 395 non-mutant kinases) (Homo sapiens, UniProt O00750); conditions: PIK3C2B; 10 μM
[2] = target: 456 kinases (of these 395 non-mutant kinases) (Homo sapiens, UniProt O14730); conditions: RIOK3; 10 μM
[3] = target: 456 kinases (of these 395 non-mutant kinases) (Homo sapiens, UniProt O14965); conditions: AURKA; 10 μM
[4] = target: 456 kinases (of these 395 non-mutant kinases) (Homo sapiens, UniProt O75676); conditions: 10 μM
[5] = target: 456 kinases (of these 395 non-mutant kinases) (Homo sapiens, UniProt O95747); conditions: OSR1; 10 μM
[6] = target: 456 kinases (of these 395 non-mutant kinases) (Homo sapiens, UniProt P00519, Q252H); conditions: 10 μM
[7] = target: 456 kinases (of these 395 non-mutant kinases) (Homo sapiens, UniProt P00533); conditions: EGFR; 10 μM
[8] = target: 456 kinases (of these 395 non-mutant kinases) (Homo sapiens, UniProt P00533, DEL752-759); conditions: EGFR(S752-I759del); 10 μM
[9] = target: 456 kinases (of these 395 non-mutant kinases) (Homo sapiens, UniProt P00533, G719S); conditions: EGFR(G719S); 10 μM
[10] = target: 456 kinases (of these 395 non-mutant kinases) (Homo sapiens, UniProt P04629); conditions: TRKA; 10 μM
[11] = target: 456 kinases (of these 395 non-mutant kinases) (Homo sapiens, UniProt P07949); conditions: RET; 10 μM
[12] = target: 456 kinases (of these 395 non-mutant kinases) (Homo sapiens, UniProt P17612); conditions: PKAC-alpha; 10 μM
[13] = target: 456 kinases (of these 395 non-mutant kinases) (Homo sapiens, UniProt P22607, G697C); conditions: FGFR3(G697C); 10 μM
[14] = target: 456 kinases (of these 395 non-mutant kinases) (Homo sapiens, UniProt P32298); conditions: GRK4; 10 μM
[15] = target: 456 kinases (of these 395 non-mutant kinases) (Homo sapiens, UniProt P42336); conditions: PIK3CA; 10 μM
[16] = target: 456 kinases (of these 395 non-mutant kinases) (Homo sapiens, UniProt P53671); conditions: LIMK2; 10 μM
[17] = target: 456 kinases (of these 395 non-mutant kinases) (Homo sapiens, UniProt P54753); conditions: EPHB3; 10 μM
[18] = target: 456 kinases (of these 395 non-mutant kinases) (Homo sapiens, UniProt P57059); conditions: SIK; 10 μM
[19] = target: 456 kinases (of these 395 non-mutant kinases) (Homo sapiens, UniProt P78362); conditions: SRPK2; 10 μM
[20] = target: 456 kinases (of these 395 non-mutant kinases) (Homo sapiens, UniProt Q02156); conditions: PRKCE; 10 μM
[21] = target: 456 kinases (of these 395 non-mutant kinases) (Homo sapiens, UniProt Q15831); conditions: LKB1; 10 μM
[22] = target: 456 kinases (of these 395 non-mutant kinases) (Homo sapiens, UniProt Q6DT37); conditions: DMPK2; 10 μM
[23] = target: 456 kinases (of these 395 non-mutant kinases) (Homo sapiens, UniProt Q86Z02); conditions: HIPK1; 10 μM
[24] = target: 456 kinases (of these 395 non-mutant kinases) (Homo sapiens, UniProt Q8IVH8); conditions: MAP4K3; 10 μM
[25] = target: 456 kinases (of these 395 non-mutant kinases) (Homo sapiens, UniProt Q9BRS2); conditions: RIOK1; 10 μM
[26] = target: 456 kinases (of these 395 non-mutant kinases) (Homo sapiens, UniProt Q9BZL6); conditions: PRKD2; 10 μM
[27] = target: 456 kinases (of these 395 non-mutant kinases) (Homo sapiens, UniProt Q9H3Y6); conditions: SRMS; 10 μM
[28] = target: 456 kinases (of these 395 non-mutant kinases) (Homo sapiens, UniProt Q9P0L2); conditions: MARK1; 10 μM
[29] = target: 456 kinases (of these 395 non-mutant kinases) (Homo sapiens, UniProt Q9UEW8); conditions: STK39; 10 μM
[30] = target: 456 kinases (of these 395 non-mutant kinases) (Homo sapiens, UniProt Q9UK32); conditions: 10 μM
[31] = target: 456 kinases (of these 395 non-mutant kinases) (Homo sapiens, UniProt Q9Y6E0); conditions: MST3; 10 μM

Sequence of 456 kinases (of these 395 non-mutant kinases) (Homo sapiens, UniProt P07949) (P07949 29-1114 limits assumed, change not shown): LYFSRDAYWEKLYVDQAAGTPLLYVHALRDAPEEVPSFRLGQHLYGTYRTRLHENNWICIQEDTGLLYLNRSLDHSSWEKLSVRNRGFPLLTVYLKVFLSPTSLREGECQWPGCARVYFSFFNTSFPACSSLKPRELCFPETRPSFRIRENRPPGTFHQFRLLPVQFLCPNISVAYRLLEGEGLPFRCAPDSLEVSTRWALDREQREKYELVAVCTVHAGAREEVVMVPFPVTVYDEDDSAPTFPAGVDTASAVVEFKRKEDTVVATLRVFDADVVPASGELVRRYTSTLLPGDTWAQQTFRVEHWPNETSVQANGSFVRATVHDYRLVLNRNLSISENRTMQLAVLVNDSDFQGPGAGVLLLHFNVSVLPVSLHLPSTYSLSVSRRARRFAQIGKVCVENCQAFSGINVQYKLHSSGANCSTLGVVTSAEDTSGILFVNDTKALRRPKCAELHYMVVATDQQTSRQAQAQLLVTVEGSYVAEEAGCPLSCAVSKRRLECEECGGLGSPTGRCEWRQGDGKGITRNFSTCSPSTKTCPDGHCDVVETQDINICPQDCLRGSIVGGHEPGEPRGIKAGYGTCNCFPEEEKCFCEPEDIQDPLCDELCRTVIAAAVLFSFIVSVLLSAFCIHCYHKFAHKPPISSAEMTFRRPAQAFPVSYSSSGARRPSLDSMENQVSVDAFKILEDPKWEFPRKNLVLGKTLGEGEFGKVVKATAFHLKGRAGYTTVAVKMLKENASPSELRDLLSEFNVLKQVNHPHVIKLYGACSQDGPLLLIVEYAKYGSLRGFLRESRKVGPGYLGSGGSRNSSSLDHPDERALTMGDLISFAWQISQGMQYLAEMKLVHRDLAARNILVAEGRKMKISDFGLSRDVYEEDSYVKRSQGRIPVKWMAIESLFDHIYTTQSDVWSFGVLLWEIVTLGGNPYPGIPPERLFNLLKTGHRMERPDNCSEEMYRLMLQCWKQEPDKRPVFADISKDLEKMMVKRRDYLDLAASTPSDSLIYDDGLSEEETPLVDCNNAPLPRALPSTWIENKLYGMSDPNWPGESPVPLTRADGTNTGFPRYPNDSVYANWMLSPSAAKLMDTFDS
Sequence of 456 kinases (of these 395 non-mutant kinases) (Homo sapiens, UniProt P54753) (P54753 34-998 limits assumed, change not shown): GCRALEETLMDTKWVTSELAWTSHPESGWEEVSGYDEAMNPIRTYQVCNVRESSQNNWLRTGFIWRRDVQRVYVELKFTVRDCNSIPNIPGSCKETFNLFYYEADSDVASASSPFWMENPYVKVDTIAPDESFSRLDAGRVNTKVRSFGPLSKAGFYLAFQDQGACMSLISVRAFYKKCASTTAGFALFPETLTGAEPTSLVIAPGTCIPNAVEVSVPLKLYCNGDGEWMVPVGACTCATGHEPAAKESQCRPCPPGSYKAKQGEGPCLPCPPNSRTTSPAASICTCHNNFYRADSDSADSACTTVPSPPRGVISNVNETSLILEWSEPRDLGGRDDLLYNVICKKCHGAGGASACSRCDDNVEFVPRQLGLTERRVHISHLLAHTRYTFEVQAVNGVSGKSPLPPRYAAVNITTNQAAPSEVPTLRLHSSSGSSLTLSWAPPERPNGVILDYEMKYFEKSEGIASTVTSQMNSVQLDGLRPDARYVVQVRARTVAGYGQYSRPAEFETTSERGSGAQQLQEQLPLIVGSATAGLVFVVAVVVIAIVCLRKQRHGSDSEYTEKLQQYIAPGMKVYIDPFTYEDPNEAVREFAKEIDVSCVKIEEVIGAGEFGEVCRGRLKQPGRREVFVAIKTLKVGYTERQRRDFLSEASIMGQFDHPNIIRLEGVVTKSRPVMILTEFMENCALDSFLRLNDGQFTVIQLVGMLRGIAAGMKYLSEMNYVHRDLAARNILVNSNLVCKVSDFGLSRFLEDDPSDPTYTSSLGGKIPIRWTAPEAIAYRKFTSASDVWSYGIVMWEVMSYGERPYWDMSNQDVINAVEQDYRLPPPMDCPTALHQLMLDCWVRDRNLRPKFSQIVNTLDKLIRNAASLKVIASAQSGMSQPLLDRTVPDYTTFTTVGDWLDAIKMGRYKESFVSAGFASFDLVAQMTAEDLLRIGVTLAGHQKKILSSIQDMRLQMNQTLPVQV
Sequence of 456 kinases (of these 395 non-mutant kinases) (Homo sapiens, UniProt P22607, G697C) (P22607 23-806 G697C limits assumed): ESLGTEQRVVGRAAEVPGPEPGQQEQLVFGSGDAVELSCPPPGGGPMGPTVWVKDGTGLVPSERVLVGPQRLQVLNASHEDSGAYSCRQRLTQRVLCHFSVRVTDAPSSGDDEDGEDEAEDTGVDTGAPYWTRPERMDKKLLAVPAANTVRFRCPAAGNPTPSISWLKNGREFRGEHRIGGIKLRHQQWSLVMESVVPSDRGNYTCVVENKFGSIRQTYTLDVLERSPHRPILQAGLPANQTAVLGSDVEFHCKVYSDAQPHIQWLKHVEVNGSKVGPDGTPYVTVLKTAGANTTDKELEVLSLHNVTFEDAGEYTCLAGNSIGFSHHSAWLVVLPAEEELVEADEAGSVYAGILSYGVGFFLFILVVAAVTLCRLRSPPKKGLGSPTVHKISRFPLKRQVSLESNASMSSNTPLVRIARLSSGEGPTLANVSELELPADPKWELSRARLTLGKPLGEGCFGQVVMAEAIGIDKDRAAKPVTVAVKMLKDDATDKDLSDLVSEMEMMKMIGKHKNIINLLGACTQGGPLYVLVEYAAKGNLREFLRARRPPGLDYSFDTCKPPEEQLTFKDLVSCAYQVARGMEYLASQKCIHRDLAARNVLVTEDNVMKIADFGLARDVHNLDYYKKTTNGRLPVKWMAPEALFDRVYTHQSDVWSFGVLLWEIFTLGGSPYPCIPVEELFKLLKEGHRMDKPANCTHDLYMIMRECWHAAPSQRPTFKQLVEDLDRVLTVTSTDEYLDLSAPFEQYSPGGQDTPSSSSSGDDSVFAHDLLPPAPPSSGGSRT
Sequence of 456 kinases (of these 395 non-mutant kinases) (Homo sapiens, UniProt O95747) (O95747 2-527 limits assumed, stated change not applied): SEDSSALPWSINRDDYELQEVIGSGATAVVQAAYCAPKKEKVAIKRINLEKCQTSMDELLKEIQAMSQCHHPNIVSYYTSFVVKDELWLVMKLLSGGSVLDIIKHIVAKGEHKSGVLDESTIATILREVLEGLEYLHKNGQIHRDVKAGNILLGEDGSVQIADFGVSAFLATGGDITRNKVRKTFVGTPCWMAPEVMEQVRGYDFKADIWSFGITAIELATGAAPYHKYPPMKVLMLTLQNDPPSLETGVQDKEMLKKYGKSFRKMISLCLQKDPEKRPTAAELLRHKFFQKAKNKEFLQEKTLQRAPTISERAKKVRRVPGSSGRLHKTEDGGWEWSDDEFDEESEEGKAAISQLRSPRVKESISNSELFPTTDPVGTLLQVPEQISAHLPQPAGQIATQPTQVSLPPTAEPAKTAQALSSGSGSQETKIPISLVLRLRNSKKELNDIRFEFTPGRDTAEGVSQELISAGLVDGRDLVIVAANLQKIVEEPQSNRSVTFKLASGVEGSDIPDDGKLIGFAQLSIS
Sequence of 456 kinases (of these 395 non-mutant kinases) (Homo sapiens, UniProt P04629) (P04629 33-796 limits assumed, change not shown): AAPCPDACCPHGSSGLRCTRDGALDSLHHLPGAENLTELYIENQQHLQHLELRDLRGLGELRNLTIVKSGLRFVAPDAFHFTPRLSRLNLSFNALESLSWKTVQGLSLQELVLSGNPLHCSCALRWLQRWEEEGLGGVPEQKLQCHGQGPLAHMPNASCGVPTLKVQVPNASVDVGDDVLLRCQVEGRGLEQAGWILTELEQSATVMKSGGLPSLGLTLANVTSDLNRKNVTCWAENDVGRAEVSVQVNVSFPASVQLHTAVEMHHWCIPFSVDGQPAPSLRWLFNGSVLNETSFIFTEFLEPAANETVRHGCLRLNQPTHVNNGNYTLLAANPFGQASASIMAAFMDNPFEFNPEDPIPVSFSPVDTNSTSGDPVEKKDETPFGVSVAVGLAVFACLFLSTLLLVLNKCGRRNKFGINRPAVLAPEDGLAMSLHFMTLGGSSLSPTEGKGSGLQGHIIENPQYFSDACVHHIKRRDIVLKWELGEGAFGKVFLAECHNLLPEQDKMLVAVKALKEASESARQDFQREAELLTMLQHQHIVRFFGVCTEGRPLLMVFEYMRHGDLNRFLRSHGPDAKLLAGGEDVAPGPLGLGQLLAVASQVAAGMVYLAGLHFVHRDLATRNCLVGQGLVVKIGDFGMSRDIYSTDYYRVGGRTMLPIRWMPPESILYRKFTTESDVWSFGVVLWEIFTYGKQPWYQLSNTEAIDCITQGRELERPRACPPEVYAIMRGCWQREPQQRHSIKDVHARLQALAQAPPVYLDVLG

SMILES: CCc1ccccc1NC(=O)c1c(C)nsc1Nc1cnc2cc(F)ccc2n1 [Example 20, N-(2-Ethylphenyl)-5-[(6-fluoroquinoxalin-2-yl)amino]-3-methyl-1,2-thiazole-4-carboxamide]
- % Ctrl @ 10 μM [1]: 100 % Ctrl
- % Ctrl @ 10 μM [2]: 91 % Ctrl
- % Ctrl @ 10 μM [3]: 100 % Ctrl
- % Ctrl @ 10 μM ([4]; RPS6KA4(Kin.Dom.1-N-terminal)): 93 % Ctrl
- % Ctrl @ 10 μM ([4]; RPS6KA4(Kin.Dom.2-C-terminal)): 88 % Ctrl
- % Ctrl @ 10 μM [5]: 97 % Ctrl
- % Ctrl @ 10 μM ([6]; ABL1(Q252H)-nonphosphorylated): 100 % Ctrl
- % Ctrl @ 10 μM ([6]; ABL1(Q252H)-phosphorylated): 100 % Ctrl
- % Ctrl @ 10 μM [7]: 98 % Ctrl
- % Ctrl @ 10 μM [8]: 100 % Ctrl
- % Ctrl @ 10 μM [9]: 97 % Ctrl
- % Ctrl @ 10 μM [10]: 100 % Ctrl
- % Ctrl @ 10 μM [11]: 88 % Ctrl
- % Ctrl @ 10 μM [12]: 91 % Ctrl
- % Ctrl @ 10 μM [13]: 87 % Ctrl
- % Ctrl @ 10 μM [14]: 77 % Ctrl
- % Ctrl @ 10 μM [15]: 100 % Ctrl
- % Ctrl @ 10 μM [16]: 94 % Ctrl
- % Ctrl @ 10 μM [17]: 82 % Ctrl
- % Ctrl @ 10 μM [18]: 100 % Ctrl
- % Ctrl @ 10 μM [19]: 100 % Ctrl
- % Ctrl @ 10 μM [20]: 75 % Ctrl
- % Ctrl @ 10 μM [21]: 100 % Ctrl
- % Ctrl @ 10 μM [22]: 79 % Ctrl
- % Ctrl @ 10 μM [23]: 100 % Ctrl
- % Ctrl @ 10 μM [24]: 83 % Ctrl
- % Ctrl @ 10 μM [25]: 100 % Ctrl
- % Ctrl @ 10 μM [26]: 91 % Ctrl
- % Ctrl @ 10 μM [27]: 100 % Ctrl
- % Ctrl @ 10 μM [28]: 97 % Ctrl
- % Ctrl @ 10 μM [29]: 100 % Ctrl
- % Ctrl @ 10 μM ([30]; RSK4(Kin.Dom.1-N-terminal)): 100 % Ctrl
- % Ctrl @ 10 μM ([30]; RSK4(Kin.Dom.2-C-terminal)): 75 % Ctrl
- % Ctrl @ 10 μM [31]: 75 % Ctrl
